According to patent publication US12595230B2, “Substituted 6,7-dihydro-5H-benzo[7]annulene compounds and their derivatives, processes for their preparation and therapeutic uses thereof” (Sanofi, priority 2020, dated 2026):

Target: T1, ERα (Homo sapiens, UniProt P03372)
T1 construct: host or cells: MCF7
T1 sequence (P03372 1-595): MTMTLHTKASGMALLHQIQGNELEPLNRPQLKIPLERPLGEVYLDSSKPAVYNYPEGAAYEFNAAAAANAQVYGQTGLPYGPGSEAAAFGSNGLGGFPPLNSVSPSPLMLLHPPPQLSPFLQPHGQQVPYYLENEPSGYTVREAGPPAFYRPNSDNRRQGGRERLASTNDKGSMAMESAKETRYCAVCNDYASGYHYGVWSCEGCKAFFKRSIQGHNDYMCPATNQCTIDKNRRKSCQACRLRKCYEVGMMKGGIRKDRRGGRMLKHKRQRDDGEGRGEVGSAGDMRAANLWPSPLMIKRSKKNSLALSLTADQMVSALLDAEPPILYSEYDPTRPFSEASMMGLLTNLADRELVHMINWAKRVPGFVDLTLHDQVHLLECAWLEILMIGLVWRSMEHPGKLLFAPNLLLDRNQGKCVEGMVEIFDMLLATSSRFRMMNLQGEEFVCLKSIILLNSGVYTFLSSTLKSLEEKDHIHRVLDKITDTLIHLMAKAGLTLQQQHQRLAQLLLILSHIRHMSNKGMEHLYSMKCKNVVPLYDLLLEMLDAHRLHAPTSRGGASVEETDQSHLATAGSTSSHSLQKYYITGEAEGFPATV
Test: Estrogen receptor degradation activity: breast cancer cell ERα in cell western assay (MCF7 cells)
Type: cell-based
Details: for % Degradation At 0.3 μM: 4 hours, relative to fulvestrant 0.1 μM positive control; for DC50: 4 hours post compound addition, concentration which degrades 50% of the estrogen receptor, read-out: Degradation IC50
Description: Test: Estrogen Receptor Degradation Activity Said test involves measuring the in vitro degradation activity of the compounds of the Table 1a. The measurements of the degradation activities were made using a breast cancer cell ERα in cell western assay as described hereunder. MCF7 cells (ATCC) were seeded in 384 wells microplate (collagen coated) at a concentration of 10000 cells/30 μL per well in red phenol free MEM alpha medium (invitrogen) containing 5% charcoal dextran striped FBS. The following day, 9 points serial 1:5 dilution of each compound was added to the cells in 2.5p L at final concentrations ranging from 0.3-0.0000018 μM (in table 2), or 0.1 μM for fulvestrant (using as positive control). At 4 hours post compound addition the cells were fixed by adding 25 μL of formalin (final concentration 5% formalin containing 0.1% triton) for 10 minutes at room temperature and then washed twice with PBS. Then, 50 μL of LI-COR blocking buffer containing 0.1% Triton was added to plate for 30 minutes at room temperature. LI-COR blocking buffer was removed and cells were incubated overnight at cold room with 50 μL anti-ER rabbit monoclonal antibody (Thermo scientific MA1-39540) diluted at 1:1000 in LI-COR blocking buffer containing 0.1% tween-20. Wells which were treated with blocking buffer but no antibody were used as background control. Wells were washed twice with PBS (0.1% tween-20) and incubated at 37° C. for 60 minutes in LI-COR (0.1% tween-20) containing goat anti-rabbit antibody Alexa 488 (1:1000) and Syto-64 a DNA dye (2 μM final concentration). Cells were then washed 3 times in PBS and scanned in ACUMEN explorer (TTP-Labtech). Integrated intensities in the green fluorescence and red fluorescence were measured to determine the levels of ERα and DNA respectively. The degradation activity with respect to estrogen receptors in this test is given by the concentration which degrades 50% of the estrogen receptor (or IC50) in nM. […] DMSO−fulvestrant)).

Structure (SMILES): CC(C)C1CCc2cc(C(=O)O)ccc2C(c2ccc(CC3CN(CCCF)C3)cc2)=C1c1ccc(Cl)cc1Cl (single isomer, unassigned) [Example 321, 8-(2,4-dichlorophenyl)-9-(4-((1-(3-fluoropropyl)azetidin-3-yl)methyl)phenyl)-7-isopropyl-6,7-dihydro-5H-benzo[7]annulene-3-carboxylic acid]
- % Degradation At 0.3 μM: 88%
- DC50: 500 pM

Structure (SMILES): CC(C)C1CCc2cc(C(=O)O)ccc2C(c2ccc(CC3CN(CCCF)C3)cc2)=C1c1ccc(Cl)cc1Cl (single isomer, unassigned) [Example 322, 8-(2,4-dichlorophenyl)-9-(4-((1-(3-fluoropropyl)azetidin-3-yl)methyl)phenyl)-7-isopropyl-6,7-dihydro-5H-benzo[7]annulene-3-carboxylic acid]
- % Degradation At 0.3 μM: 87%
- DC50: 600 pM

Structure (SMILES): CC1CCc2cc(C(=O)O)ccc2C(c2ccc(CC3CN(CCCF)C3)cc2)=C1c1ccc(Cl)cc1 (single isomer, unassigned) [Example 327, 8-(4-chlorophenyl)-9-(4-((1-(3-fluoropropyl)azetidin-3-yl)methyl)phenyl)-7-methyl-6,7-dihydro-5H-benzo[7]annulene-3-carboxylic acid]
- % Degradation At 0.3 μM: 86%
- DC50: 4700 pM

Structure (SMILES): CC1CCc2cc(C(=O)O)ccc2C(c2ccc(CC3CN(CCCF)C3)cc2)=C1c1ccc(Cl)cc1 (single isomer, unassigned) [Example 328, 18-(4-chlorophenyl)-9-(4-((1-(3-fluoropropyl)azetidin-3-yl)methyl)phenyl)-7-methyl-6,7-dihydro-5H-benzo[7]annulene-3-carboxylic acid]
- % Degradation At 0.3 μM: 88%
- DC50: 400 pM

Structure (SMILES): CCC1CCc2cc(C(=O)O)ccc2C(c2ccc(CC3CN(CCCF)C3)cc2)=C1c1ccc(Cl)cc1 (single isomer, unassigned) [Example 329, 8-(4-chlorophenyl)-7-ethyl-9-(4-((1-(3-fluoropropyl)azetidin-3-yl)methyl)phenyl)-6,7-dihydro-5H-benzo[7]annulene-3-carboxylic acid]
- % Degradation At 0.3 μM: 89%
- DC50: 1300 pM

Structure (SMILES): CCC1CCc2cc(C(=O)O)ccc2C(c2ccc(CC3CN(CCCF)C3)cc2)=C1c1ccc(Cl)cc1 (single isomer, unassigned) [Example 330, 8-(4-chlorophenyl)-7-ethyl-9-(4-((1-(3-fluoropropyl)azetidin-3-yl)methyl)phenyl)-6,7-dihydro-5H-benzo[7]annulene-3-carboxylic acid]
- % Degradation At 0.3 μM: 91%
- DC50: 7000 pM

Structure (SMILES): O=C(O)c1ccc2c(c1)CCCC(C1C[C@H]3CCC[C@H]3C1)=C2c1ccc(CC2CN(CCCF)C2)cc1 (single isomer, unassigned) [Example 336, 9-(4-((1-(3-fluoropropyl)azetidin-3-yl)methyl)phenyl)-8-(octahydropentalen-2-yl)-6,7-dihydro-5H-benzo[7]annulene-3-carboxylic acid]
- % Degradation At 0.3 μM: 86%
- DC50: 900 pM

Structure (SMILES): COC(c1ccc(C2=C(c3ccc(Cl)cc3Cl)CCCc3cc(C(=O)O)ccc32)cc1)C1CN(CCCF)C1 (single isomer, unassigned; isomer 1) [Example 227, 8-(2,4-dichlorophenyl)-9-(4-((1-(3-fluoropropyl)azetidin-3-yl)(methoxy)methyl)phenyl)-6,7-dihydro-5H-benzo[7]annulene-3-carboxylic Acid Isomer 1]
- % Degradation At 0.3 μM: 75%
- DC50: 600 pM

Structure (SMILES): CCOC(c1ccc(C2=C(c3ccc(Cl)cc3Cl)CCCc3cc(C(=O)O)ccc32)cc1)C1CN(CCCF)C1 (single isomer, unassigned; isomer 1) [Example 229, 8-(2,4-dichlorophenyl)-9-(4-(ethoxy(1-(3-fluoropropyl)azetidin-3-yl)methyl)phenyl)-6,7-dihydro-5H-benzo[7]annulene-3-carboxylic Acid Isomer 1]
- % Degradation At 0.3 μM: 77%
- DC50: 600 pM

Structure (SMILES): CC(O)(c1ccc(C2=C(c3ccc(Cl)cc3Cl)CCCc3cc(C(=O)O)ccc32)cc1)C1CN(CCCF)C1.Cl (single isomer, unassigned; isomer 1) [Example 235, 8-(2,4-dichlorophenyl)-9-(4-(1-(1-(3-fluoropropyl)azetidin-3-yl)-1-hydroxyethyl)phenyl)-6,7-dihydro-5H-benzo[7]annulene-3-carboxylic acid, Hydrochloride Isomer 1]
- % Degradation At 0.3 μM: 62%
- DC50: 4500 pM

Structure (SMILES): NC(c1ccc(C2=C(c3ccc(Cl)cc3Cl)CCCc3cc(C(=O)O)ccc32)cc1)C1CN(CCCF)C1 (single isomer, unassigned; isomer 1) [Example 243, 9-(4-(amino(1-(3-fluoropropyl)azetidin-3-yl)methyl)phenyl)-8-(2,4-dichlorophenyl)-6,7-dihydro-5H-benzo[7]annulene-3-carboxylic Acid Isomer 1]
- % Degradation At 0.3 μM: 78%
- DC50: 15600 pM

Structure (SMILES): COC(c1ccc(C2=C(c3ccc(Cl)cc3Cl)CCCc3cc(C(=O)O)ccc32)cc1)C1CN(CCCF)C1 (single isomer, unassigned; isomer 2) [Example 228, 8-(2,4-dichlorophenyl)-9-(4-((1-(3-fluoropropyl)azetidin-3-yl)(methoxy)methyl)phenyl)-6,7-dihydro-5H-benzo[7]annulene-3-carboxylic Acid Isomer 2]
- % Degradation At 0.3 μM: 76%
- DC50: 600 pM

Structure (SMILES): CCOC(c1ccc(C2=C(c3ccc(Cl)cc3Cl)CCCc3cc(C(=O)O)ccc32)cc1)C1CN(CCCF)C1 (single isomer, unassigned; isomer 2) [Example 230, 8-(2,4-dichlorophenyl)-9-(4-(ethoxy(1-(3-fluoropropyl)azetidin-3-yl)methyl)phenyl)-6,7-dihydro-5H-benzo[7]annulene-3-carboxylic Acid Isomer 2]
- % Degradation At 0.3 μM: 78%
- DC50: 700 pM

Structure (SMILES): CC(O)(c1ccc(C2=C(c3ccc(Cl)cc3Cl)CCCc3cc(C(=O)O)ccc32)cc1)C1CN(CCCF)C1.Cl (single isomer, unassigned; isomer 2) [Example 236, 8-(2,4-dichlorophenyl)-9-(4-(1-(1-(3-fluoropropyl)azetidin-3-yl)-1-hydroxyethyl)phenyl)-6,7-dihydro-5H-benzo[7]annulene-3-carboxylic Acid, Hydrochloride Isomer 2]
- % Degradation At 0.3 μM: 100%
- DC50: 400 pM

Structure (SMILES): NC(c1ccc(C2=C(c3ccc(Cl)cc3Cl)CCCc3cc(C(=O)O)ccc32)cc1)C1CN(CCCF)C1 (single isomer, unassigned; isomer 2) [Example 244, 9-(4-(Amino(1-(3-fluoropropyl)azetidin-3-yl)methyl)phenyl)-8-(2,4-dichlorophenyl)-6,7-dihydro-5H-benzo[7]annulene-3-carboxylic Acid Isomer 2]
- % Degradation At 0.3 μM: 86%
- DC50: 13600 pM

Structure (SMILES): Cl.O=C(O)c1ccc2c(c1)CCCC(c1ccccc1)=C2c1ccc(CC2CN(CCCF)C2)cc1 [Example 1, 9-(4-((1-(3-Fluoropropyl)azetidin-3-yl)methyl)phenyl)-8-phenyl-6,7-dihydro-5H-benzo[7]annulene-3-carboxylic Acid Hydrochloride]
- % Degradation At 0.3 μM: 83%
- DC50: 400 pM

Structure (SMILES): O=C(O)c1ccc2c(c1)CCCC(c1ccc(Cl)cc1Cl)=C2c1ccc(CC2CN(CCCF)C2)cc1 [Example 2, 8-(2,4-dichlorophenyl)-9-(4-((1-(3-fluoropropyl)azetidin-3-yl)methyl)phenyl)-6,7-dihydro-5H-benzo[7]annulene-3-carboxylic Acid]
- % Degradation At 0.3 μM: 91%
- DC50: 300 pM

Structure (SMILES): O=C(O)c1ccc2c(c1)CCCC(c1ccccc1Cl)=C2c1ccc(CC2CN(CCCF)C2)cc1 [Example 3, 8-(2-chlorophenyl)-9-(4-((1-(3-fluoropropyl)azetidin-3-yl)methyl)phenyl)-6,7-dihydro-5H-benzo[7]annulene-3-carboxylic acid]
- % Degradation At 0.3 μM: 89%
- DC50: 300 pM
